Measured values from patent publication US20240382435A1, “NON-CERULOPLASMIN BOUND COPPER LEVEL MONITORING” (ORPHALAN S.A., priority 2021, published 2024).

Columns and labels:
[1] = tested on: patients with Wilson's Disease; assay: Serum NCC by copper speciation assay, randomized open-label clinical study (Example 3); assay type: in vivo, human
Description: 1.95 mL of rhodium internal standard solution containing 1% TMAH/1% EDTA was combined with 50 μL of human serum in a 15 mL polypropylene tube, capped and rotary mixed for at least 30 minutes. The processed sample was then analysed by ICP-MS on an Agilent 7900x inductively coupled plasma mass spectrometer.
The samples were defrosted and equilibrated to room temperature prior to use, and vortex mixed for approximately 5 seconds. 80 μL of 50 mM Tris-HCl (pH 7.4) buffer solution was combined with 20 μL of the clinical sample, blank or reference standard in a 0.5 mL Eppendorf tube (protein low bind). The diluted sample (100 μL) was transferred to a 0.3 mL polypropylene LC vial and sealed with a screw cap. An aliquot (50 μL) of each processed sample was then analysed by LC-ICP-MS on an Agilent 8900x inductively coupled plasma mass spectrometer.
Speciation analysis of Cu-containing species in the serum samples was performed by an anion exchange high performance liquid chromatography (AE HPLC) column (GE Healthcare MonoQ 5/50 GL, stationary phase (10 μm; 5×50 mm)) with an ammonium acetate gradient (0-250 mM) for 20 min. A flow rate of 1.0 mL/min was used. The chromatographic separation was performed at 25° C. Detection of the eluting Cu species was achieved using a collision/reaction cell Agilent Technologies 8900x ICP-MS spectrometer. The isotopes 63Cu and 65Cu were monitored in time resolved mode analysis using an integration time of 0.3 sec. 63Cu is the most abundant isotope and therefore this isotope was used to quantify copper by LC-ICP-MS.
Efficacy was assessed and treatments were monitored primarily using total copper analysis and a copper speciation assay as outlined in Examples 1 and 2 to determine serum NCC levels.
Eligible patients were clinically stable with their standard of-care D penicillamine chelation therapy for at least 1 year. These patients entered a 12-Week Penicillamine Baseline Period (from study visits on Day 1 to Week 12). During this time, all patients continued their current D penicillamine regimen under study conditions. At the end of the Penicillamine Baseline Period, patients who fulfilled the protocol definition of being adequately controlled and tolerating D penicillamine were randomized in a 1:1 ratio to receive either TETA 4HCl or to continue to receive D penicillamine during a 24-Week Post-Randomization Period (from study visits Week 12 to Week 36).
The primary efficacy endpoint was the serum NCC concentration (in μg/L) at Week 36. Serum NCC concentrations were determined using a copper speciation serum NCC assay using the methodology outlined in Examples 1 and 2. The primary efficacy analysis utilized the serum NCC values from all study visits that were analyzed using a restricted maximum likelihood based general linear model for correlated data. The correlation due to repeated measures was modelled by specifying the variance covariance matrix.

[2] = tested on: patients with Wilson's Disease; assay: 24-hour urinary copper excretion (UCE), clinical study of Example 3; assay type: in vivo, human; conditions: ITT
Description: The number and the proportion of patients with a serum NCC value that matched the threshold (eg, serum NCC≤50 μg/L) were presented along with the 95% confidence interval of the proportion by visit and treatment arm. The proportions in the 2 arms were compared using Fisher's exact test. The same approach was applied on 24-hour UCE.

[3] = tested on: patients with Wilson's Disease; assay: Clinical Global Impression of Change (CGIC) rating scale, clinical study of Example 3; assay type: in vivo, human; conditions: 7-point scale, ITT
Description: The CGIC rating scale, a 7-point ordinal score, was summarized by visit and treatment arm, and compared between arms using a stratified Cochran-Mantel-Haenszel test. The UWDRS, a continuous measure, was summarized by visit and treatment arm with descriptive statistics for absolute values and the changes from baseline.

[4] = tested on: patients with Wilson's Disease; assay: Baseline ALT, clinical study of Example 3; conditions: baseline (Penicillamine Baseline Period), by treatment arm
Description: For change from baseline in laboratory measurements, “baseline” was defined as the last non-missing value during the Penicillamine Baseline Period, including unscheduled values.

[5] = Day 1, 12-Week Penicillamine Baseline Period (all patients on D-penicillamine), ITT population, by arm
[6] = Week 4, Penicillamine Baseline Period (all patients on D-penicillamine), ITT
[7] = Week 8, Penicillamine Baseline Period (all patients on D-penicillamine), ITT
[8] = Week 12 (randomization), end of Penicillamine Baseline Period, ITT
[9] = Week 16, Post-Randomization Period, ITT
[10] = Week 20, Post-Randomization Period, ITT
[11] = Week 24, Post-Randomization Period, ITT
[12] = Week 28, Post-Randomization Period, ITT
[13] = Week 32, Post-Randomization Period, ITT
[14] = Week 36, Post-Randomization Period, ITT
[15] = Day 1, 12-Week Penicillamine Baseline Period (all patients on D-penicillamine), by arm
[16] = Week 4, Penicillamine Baseline Period (all patients on D-penicillamine)
[17] = Week 12 (randomization), end of Penicillamine Baseline Period
[18] = Week 16, 24-Week Post-Baseline Period
[19] = Week 24, 24-Week Post-Baseline Period
[20] = Week 36, 24-Week Post-Baseline Period
[21] = Week 12, Penicillamine Baseline Period
[22] = Week 16, Post-Randomization Period
[23] = Week 24, Post-Randomization Period
[24] = Week 36, Post-Randomization Period

Cl.Cl.Cl.Cl.NCCNCCNCCN [TETA 4HCl, trientine tetrahydrochloride]
serum NCC value, mean [1, 5]: 60.7 µg/L
serum NCC value, median [1, 5]: 58.2 µg/L
serum NCC value, mean [1, 6]: 57.6 µg/L
serum NCC value, median [1, 6]: 58.5 µg/L
serum NCC value, mean [1, 7]: 70.0 µg/L
serum NCC value, median [1, 7]: 61.5 µg/L
serum NCC value, mean [1, 8]: 68.5 µg/L
serum NCC value, median [1, 8]: 61.1 µg/L
serum NCC value, mean ([1]; Week 16, 24-Week Post-Randomization Period, ITT): 78.0 µg/L
serum NCC change from baseline, mean [1, 9]: 9.4 µg/L
serum NCC change from baseline, median [1, 9]: 9.2 µg/L
serum NCC value, median [1, 9]: 69.6 µg/L
serum NCC change from baseline, mean [1, 10]: 8.2 µg/L
serum NCC change from baseline, median [1, 10]: 4.1 µg/L
serum NCC value, mean [1, 10]: 76.8 µg/L
serum NCC value, median [1, 10]: 60.8 µg/L
serum NCC change from baseline, mean [1, 11]: -0.4 µg/L
serum NCC change from baseline, median [1, 11]: 3.0 µg/L
serum NCC value, mean [1, 11]: 60.3 µg/L
serum NCC value, median [1, 11]: 57.0 µg/L
serum NCC change from baseline, mean [1, 12]: -0.8 µg/L
serum NCC change from baseline, median [1, 12]: 0.0 µg/L
serum NCC value, mean [1, 12]: 69.5 µg/L
serum NCC value, median [1, 12]: 62.4 µg/L
serum NCC change from baseline, mean [1, 13]: -4.6 µg/L
serum NCC change from baseline, median [1, 13]: 0.7 µg/L
serum NCC value, mean [1, 13]: 64.0 µg/L
serum NCC value, median [1, 13]: 60.0 µg/L
serum NCC value, mean ([1]; Week 36 (primary efficacy endpoint), Post-Randomization Period, ITT): 57.6 µg/L
serum NCC change from baseline, mean [1, 14]: -11.0 µg/L
serum NCC change from baseline, median [1, 14]: -6.9 µg/L
serum NCC value, median [1, 14]: 51.1 µg/L
serum NCC levels, comparison between arms ([1]; copper speciation assay, Table 4): very similar
24-hour UCE value, mean [2, 15]: 550.8 μg/24 hours
24-hour UCE value, median [2, 15]: 546.6 μg/24 hours
24-hour UCE value, mean [2, 16]: 545.4 μg/24 hours
24-hour UCE value, median [2, 16]: 436.1 μg/24 hours
24-hour UCE value, mean [2, 17]: 535.1 μg/24 hours
24-hour UCE value, median [2, 17]: 590.4 μg/24 hours
24-hour UCE change from baseline, mean [2, 18]: −223 μg/24 hours
24-hour UCE change from baseline, median [2, 18]: −221 μg/24 hours
24-hour UCE value, mean [2, 18]: 316.4 μg/24 hours
24-hour UCE value, median [2, 18]: 265.6 μg/24 hours
24-hour UCE change from baseline, mean [2, 19]: −247 μg/24 hours
24-hour UCE change from baseline, median [2, 19]: −199 μg/24 hours
24-hour UCE value, mean [2, 19]: 295.7 μg/24 hours
24-hour UCE value, median [2, 19]: 257.8 μg/24 hours
24-hour UCE change from baseline, mean [2, 20]: −258 μg/24 hours
24-hour UCE change from baseline, median [2, 20]: −231 μg/24 hours
24-hour UCE value, mean [2, 20]: 289.4 μg/24 hours
24-hour UCE value, median [2, 20]: 234.8 μg/24 hours
Clinical Global Impression of Change Scale, mean ([3]; Week 4, Penicillamine Baseline Period (all patients on D-penicillamine), 4 = no change): 4.0
Clinical Global Impression of Change Scale, median [3, 16]: 4.0
Clinical Global Impression of Change Scale, mean [3, 21]: 4.0
Clinical Global Impression of Change Scale, median [3, 21]: 4.0
Clinical Global Impression of Change Scale, mean [3, 22]: 4
Clinical Global Impression of Change Scale, median [3, 22]: 4.0
Clinical Global Impression of Change Scale, mean [3, 23]: 4.0
Clinical Global Impression of Change Scale, median [3, 23]: 4.0
Clinical Global Impression of Change Scale, mean [3, 24]: 3.9
Clinical Global Impression of Change Scale, median [3, 24]: 4.0
ALT, mean baseline [4]: 34.7 U/L
